In patent publication US20230219890A1, “BICYCLIC COMPOUNDS AND USE THEREOF” (Betta Pharmaceuticals Co.,Ltd, priority 2020, published 2023) one finds IC50 data, which are given here for 38 molecules.

Structures are written as SMILES.

One assay deals with VEGFA (786-O cells). As to the kind of experiment: VEGFA ELISA Assay (IC50). The following applies: 24 hours incubation, VEGFA in culture supernatant by ELISA, class symbols. It is filed as cell-based. The procedure:
786-O cells in exponential growth phase were seeded in 96-well plate, the cell concentration was 65,000 cells per milliliter of culture medium, 180 ul per well. Compounds were serial diluted to the indicated concentration, and 20 ul compound solutions of different concentrations were added to the corresponding cell wells. The final compound concentrations were as follows (nM): 1.5, 4.6, 13.7, 41.2, 123.5, 370.4, 1111.1, 3333.3, 10000. After 24 hours of incubation, the cell culture supernatant was taken, and the VEGFA concentration was determined using an ELISA kit (purchased from abcam). Finally, the reaction was terminated, and the light absorbance value of each well was measured using a microplate reader at a wavelength of […], and IC50 was calculated by GraphPad Prism. Cell Titer-Glo reagent was used to measure cell viability.
In general terms: ELISA stands for enzyme-linked immunosorbent assay.
Consider `OC1c2c(C(F)(F)F)cn(Cc3cc(F)cc(Cl)c3)c2CCC1(F)F` (centres unmarked) [Example 29], for which the IC50 (in general, the midpoint of a concentration-inhibition curve) fell in the range of 1500 to 10000 nM.
For the molecule `Fc1cc(Cl)cc(-n2cc(C(F)(F)F)c3c2CCc2cnoc2-3)c1` [Example 201, 6-(3-chloro-5-fluorophenyl)-8-(trifluoromethyl)-5,6-dihydro-4-H-isoxazolo[5,4-e]indole], the IC50 was > 1500 nM.
On the same count and under the same terms, the result for `O[C@H]1c2c(C(F)(F)F)c(Cl)n(-c3ccc(F)c(Cl)c3)c2CCC1(F)F` [Example 107, (S)-2-chloro-1-(3-chloro-54-fluorophenyl)-5,5-difluoro-3-(trifluoromethyl)-4,5,6,7-tetrahydro-1H-indol-4-ol] reads ≤ 500 nM.

The same assay, now with this note: Homo sapiens, 786-0, 24 h, 24 hours incubation, VEGFA in culture supernatant by ELISA, class symbols.
With `OC1c2c(C(F)(F)F)cn(-c3cc(F)cc(Cl)c3)c2CCC1F` (centres unmarked) [Example 142, 1-(3-chloro-5-fluorophenyl)-5-fluoro-3-(trifluoromethyl)-4,5,6,7-tetrahydro-1H-indol-4-ol], the half-maximal inhibitory concentration (IC50) is ≤ 500 nM.
For `OC1c2c(C(F)(F)F)nn(-c3cc(F)cc(F)c3)c2CCC1(F)F` (centres unmarked) [Example 88, 1-(3,5-difluorophenyl)-5,5-difluoro-3-(trifluoromethyl)-4,5,6,7-tetrahydro-1H-indazol-4-ol], the IC50 is > 1500 nM.
Regarding `OC1CCCc2c1c(C(F)(F)F)cn2-c1ccc(F)c(C(F)F)c1` (centres unmarked) [Example 108, 1-(3-(difluoromethyl)-4-fluorophenyl)-3-(trifluoromethyl)-4,5,6,7-tetrahydro-1H-indol-4-ol], the IC50 is ≤ 500 nM.
`O=C1c2c(C(F)(F)F)cn(-c3cc(F)cc(Cl)c3)c2CCC1(F)F` [Example 6, 1-(3-chloro-5-fluorophenyl)-5,5-difluoro-3-(trifluoromethyl)-1,5,6,7-tetrahydro-4H-indol-4-one] gave a half-inhibitory concentration (IC50) of 500 to 1500 nM.
For the molecule `O=C1c2c(C(F)(F)F)cn(-c3ccc(F)c(C(F)F)c3)c2CCC1(F)F` [Example 190, 1-(3-(difluoromethyl)-4-fluorophenyl)-5,5-difluoro-3-(trifluoromethyl)-1,5,6,7-tetrahydro-4H-indol-4-one], the IC50 lay in the range of 500 to 1500 nM.
The molecule `OC1c2c(C(F)(F)F)cn(/C=C/c3ccccc3)c2CCC1(F)F` (centres unmarked) [Example 181, (E)-5,5-difluoro-1-styryl-3-(trifluoromethyl)-4,5,6,7-tetrahydro-1H-indol-4-ol] returned an IC50 of 1500 to 10000 nM.
For `CS(=O)(=O)c1nn(Cc2ccc(F)cc2)c2c1C(=O)CCC2` [Example 93, 1-(4-fluorobenzyl)-3-(methylsulfonyl)-1,5,6,7-tetrahydro-4H-indazol-4-one], the half-maximal inhibitory concentration (IC50) is > 1500 nM.
The molecule `OC1c2c(-c3ccccc3)cn(-c3cc(F)cc(Cl)c3)c2CCC1(F)F` (centres unmarked) [Example 145] returned a half-inhibitory concentration (IC50) of 1500 to 10000 nM.
For the molecule `Cn1cccc1-c1cn(-c2cc(F)cc(Cl)c2)c2c1C(O)C(F)(F)CC2` (centres unmarked) [Example 51, 1-(3-chloro-5-fluorophenyl)-5,5-difluoro-3-(1-methyl-1H-pyrrol-2-yl)-4,5,6,7-tetrahydro-1H-indol-4-ol], the IC50 lay in the range of 500 to 1500 nM.
With `CC1(O)c2c(C(F)(F)F)cn(-c3ccc(F)c(C#N)c3)c2CCC1(F)F` (centres unmarked) [Example 100, 5-(5,5-difluoro-4-hydroxyl-4-methyl-3-(trifluoromethyl)-4,5,6,7-tetrahydro-1H-indol-1-yl)-2-fluorobenzonitrile], the IC50 was ≤ 500 nM.
As to `N#CC1c2c(C(F)(F)F)cn(-c3ccc(F)cc3)c2CCC1(F)F` (centres unmarked) [Example 178, 5,5-difluoro-1-(4-fluorophenyl)-3-(trifluoromethyl)-4,5,6,7-tetrahydro-1H-indole-4-carbonitrile], the IC50 is ≤ 500 nM.
For `OC1c2c(C(F)(F)F)cc(-c3cc(F)cc(F)c3)n2CCC1(F)F` (centres unmarked) [Example 76, 3-(3,5-difluorophenyl)-7,7-difluoro-1-(trifluoromethyl)-5,6,7,8-tetrahydroindolizin-8-ol], the IC50 is ≤ 500 nM.
Same read-out and setting: with `CS(=O)(=O)c1cn(-c2cc(F)cc(Cl)c2)c2c1C(O)C(F)(F)CC2` (centres unmarked) [Example 109, 1-(3-chloro-5-fluorophenyl)-5,5-difluoro-3-(methylsulfonyl)-4,5,6,7-tetrahydro-1H-indol-4-ol] the figure was ≤ 500 nM; with `OC1c2c(C(F)(F)F)cc(-c3cc(F)cc(Cl)c3)n2CCC1F` (centres unmarked) [Example 68, 3-(3-chloro-5-fluorophenyl)-7-fluoro-1-(trifluoromethyl)-5,6,7,8-tetrahydroindolizin-8-ol], ≤ 500 nM; with `N#Cc1cc(-n2cc(-c3cncs3)c3c2CCC(F)(F)C3O)ccc1F` (centres unmarked) [Example 54, 5-(5,5-difluoro-4-hydroxy-3-(thiazol-5-yl)-4,5,6,7-tetrahydro-1H-indol-1-yl)-2-fluorobenzonitrile], 500 to 1500 nM.
In the case of `OC1c2c(C(F)(F)F)cn(-c3cncc(F)c3)c2CCC1(F)F` (centres unmarked) [Example 133], the IC50 was 500 to 1500 nM.
For `OC1c2c(C(F)(F)F)cn(-c3ccc(Cl)cc3)c2CC(F)C1F` (stereo not drawn) [Example 130, l-(4-chlorophenyl)-5,6-difluoro-3-(trifluoromethyl)-4,5,6,7-tetrahydro-1H-indol-4-ol], the IC50 was ≤ 500 nM.
As for `CC1Cc2c(c(C(F)(F)F)cn2-c2ccc(F)c(C#N)c2)C(O)C1(F)F` (centres unmarked) [Example 179, 5-(5,5-difluoro-4-hydroxy-6-methyl-3-(trifluoromethyl)-4,5,6,7-tetrahydro-1H-indol-1-yl)-2-fluorobenzonitrile], the 50% inhibitory concentration (IC50) is 500 to 1500 nM.
`N#Cc1cc(F)cc(-n2cc(C(F)(F)F)c3c2CCCC3O)c1` (centres unmarked) [Example 41, 3-fluoro-5-(4-hydroxy-3-(trifluoromethyl)-4,5,6,7-tetrahydo-1H-indol-1-yl)benzonitrile] yielded an IC50 of 500 to 1500 nM.
Consider `OC1c2c(C(F)(F)F)cn(-c3cc(F)cc(Cl)c3)c2CCC1(F)F` (centres unmarked) [Example 97, 1-(3-chloro-5-fluorophenyl)-5,5-difluoro-3-(trifluoromethyl)-4,5,6,7-tetrahydro-1H-indol-4-ol], for which the 50% inhibitory concentration (IC50) is ≤ 500 nM.
Take `O[C@@H]1c2c(C(F)(F)F)cn(-c3ccc(F)c(C(F)F)c3)c2CCC1(F)F` [Example 174, (R)-1-(3-(difluoromethyl)-4-fluorophenyl)-5,5-difluoro-3-(trifluoromethyl)-4,5,6,7-tetrahydro-1H-indol-4-ol]: the IC50 lay in the range of 500 to 1500 nM.
Turning to `OC1c2c(C(F)(F)F)cn(-c3ccc(F)c(F)c3)c2CCC1(F)F` (centres unmarked) [Example 164], the half-maximal inhibitory concentration (IC50) is ≤ 500 nM.
Regarding `N#Cc1cn(-c2cc(F)cc(Cl)c2)c2c1C(O)C(F)(F)CC2` (centres unmarked) [Example 96, 1-(3-chloro-5-fluorophenyl)-5,5-difluoro-4-hydroxyl-4,5,6,7-tetrahydro-1H-indol-3-carbonitrile], the IC50 is ≤ 500 nM.
`CS(=O)(=O)c1cn(-c2cc(F)cc(C#N)c2)c2c1C(O)C(F)CC2` (centres unmarked) [Example 193, 3-fluoro-5-(5-fluoro-4-hydroxy-3-(methylsulfonyl)-4,5,6,7-tetrahydro-1H-indol-1-yl)benzonitrile]: the IC50 was ≤ 500 nM.
Turning to `CC1Cc2c(c(C(F)(F)F)cn2-c2ccc(F)c(C#N)c2)[C@H](O)C1(F)F` (some centres unmarked) [Example 180], the half-inhibitory concentration (IC50) fell in the range of 500 to 1500 nM.
`OC1c2c(C(F)(F)F)nn(-c3cc(F)cc(Cl)c3)c2CCC1(F)F` (centres unmarked) [Example 90, 1-(3-chloro-5-fluorophenyl)-5,5-difluoro-3-(trifluoromethyl)-4,5,6,7-tetrahydro-1H-indazol-4-ol]: the IC50 was > 1500 nM.
In the case of `N#Cc1ccc(-n2cc(C(F)(F)F)c3c2CCC(F)(F)C3O)cc1` (centres unmarked) [Example 13, 4-(5,5-difluoro-4-hydroxy-3 (trifluoromethyl)-4,5,6,7-tetrahydro-1H-indol-1-yl)benzonitrile], the IC50 was ≤ 500 nM.
Same read-out and setting: the result for `CS(=O)(=O)c1cn(-c2ccc(F)c(C#N)c2)c2c1[C@H](O)C(F)(F)CC2` [Example 134, (S)-5-(5,5-difluoro-4-hydroxy-3-(methylsulfonyl)-4,5,6,7-tetrahydro-1H-indol-1-yl)-2-fluorobenzonitrile] reads ≤ 500 nM; that for `OC1c2c(C(F)(F)F)cn(-c3cncc(F)c3)c2CC(F)C1F` (centres unmarked) [Example 132, 5,6-difluoro-1-(5-fluoropyridin-3-yl)-3-(trifluoromethyl)-4,5,6,7-tetranydro-1H-indol-4-ol], ≤ 500 nM.
On to `OC1c2c(C(F)(F)F)cn(-c3ccc(F)nc3)c2CCC1(F)F` (centres unmarked) [Example 170], for which the IC50 lay in the range of 500 to 1500 nM.
Same read-out and setting: the result for `N#Cc1cc(Cl)cc(-n2cc(C(F)(F)F)c3c2CCC(F)(F)C3O)c1` (centres unmarked) [Example 154, 3-chloro-5-(5,5-difluoro-4-hydroxy-3-(trifluoromethyl)-4,5,6,7-tetrahydro-1H-indol-1-yl)benzonitrile] reads ≤ 500 nM.

The same assay, now with this note: Homo sapiens, 786-0, 24 h, 24 hours incubation, VEGFA in culture supernatant by ELISA, numeric values.
Consider `N#Cc1cc(-n2cc(C(F)(F)F)c3c2CCC(F)(F)C3O)ccc1Cl` (centres unmarked) [Example 137], for which the midpoint of inhibition, the IC50, lay at 42.1 nM.
In turn, `N#Cc1ccc(-n2cc(C(F)(F)F)c3c2CCC(F)(F)C3O)cc1F` (centres unmarked) [Example 122, 4-(5,5-difluoro-4-hydroxy-3-(trifluoromethyl)-4,5,6,7-tetrahydro-1H-indol-1-yl)-2-fluorobenzonitrile] returned an IC50 of 42.6 nM.
On the same count and under the same terms, with `N#Cc1cc(F)cc(-c2cc(C(F)(F)F)c3n2CCC(F)(F)C3O)c1` (centres unmarked) [Example 77, 3-(7,7-difluoro-8-hydroxy-1-(trifluoromethyl)-5,6,7,8-tetrahydroindolizin-3-yl)-5-fluorobenzonitrile] the figure was 16.2 nM; with `OC1c2c(C(F)(F)F)cc(-c3cc(F)cc(Cl)c3)n2CCC1(F)F` (centres unmarked) [Example 71, 3-(3-chloro-5-fluoropheny1)-7,7-difluoro-1-(trifluoromethyl)-5,6,7,8-tetrahydroindolizin-8-ol], 13.8 nM.
